Experimental data: paper PMC3914206

Key:
Format in all cases: binding
Conditions in all cases: Compound Concentration 10 µM
panel of 442 kinases [1] = target: T1, panel of 442 kinases (Homo sapiens, UniProt Q9C098)
T1 construct: purchased KINOMEscan
Source text: (§1) We assessed the selectivity of members of this scaffold using the KINOMEscan methodology across a near comprehensive panel of 442 kinases [[18,27]].

panel of 442 kinases [2] = target: T2, panel of 442 kinases (Homo sapiens, UniProt P54756)
T2 construct: purchased KINOMEscan
T2 sequence (P54756 25-1037): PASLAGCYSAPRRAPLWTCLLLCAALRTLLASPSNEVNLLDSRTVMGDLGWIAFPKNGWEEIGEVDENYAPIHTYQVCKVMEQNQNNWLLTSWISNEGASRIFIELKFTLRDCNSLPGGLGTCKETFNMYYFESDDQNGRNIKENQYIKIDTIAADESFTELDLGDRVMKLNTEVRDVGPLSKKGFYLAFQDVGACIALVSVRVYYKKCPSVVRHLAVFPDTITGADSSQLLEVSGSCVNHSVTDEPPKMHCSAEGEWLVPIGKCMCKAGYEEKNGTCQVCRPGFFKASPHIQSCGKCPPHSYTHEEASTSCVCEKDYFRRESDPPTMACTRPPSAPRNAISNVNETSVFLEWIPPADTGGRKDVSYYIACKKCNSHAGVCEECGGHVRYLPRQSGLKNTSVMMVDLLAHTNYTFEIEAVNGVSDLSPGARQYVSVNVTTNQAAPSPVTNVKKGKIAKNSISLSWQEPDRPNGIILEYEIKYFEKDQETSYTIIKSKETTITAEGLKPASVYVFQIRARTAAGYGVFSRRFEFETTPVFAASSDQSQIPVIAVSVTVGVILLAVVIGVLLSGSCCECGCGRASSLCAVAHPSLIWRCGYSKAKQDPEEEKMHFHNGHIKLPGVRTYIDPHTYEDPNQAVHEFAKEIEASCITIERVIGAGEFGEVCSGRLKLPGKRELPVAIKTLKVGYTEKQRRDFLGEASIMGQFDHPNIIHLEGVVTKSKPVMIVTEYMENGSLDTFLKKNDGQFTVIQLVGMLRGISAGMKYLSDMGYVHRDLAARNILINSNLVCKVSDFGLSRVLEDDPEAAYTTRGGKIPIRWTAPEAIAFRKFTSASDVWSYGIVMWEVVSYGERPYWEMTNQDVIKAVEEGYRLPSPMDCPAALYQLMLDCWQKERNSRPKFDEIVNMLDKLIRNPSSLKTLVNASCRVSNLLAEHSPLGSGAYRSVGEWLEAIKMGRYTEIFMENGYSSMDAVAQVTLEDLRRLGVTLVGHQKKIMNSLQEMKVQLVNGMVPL
Source text: as §1

panel of 442 kinases [3] = target: T3, panel of 442 kinases (Homo sapiens, UniProt Q86V86)
T3 construct: purchased KINOMEscan
Source text: as §1

panel of 442 kinases [4] = target: T4, panel of 442 kinases (Homo sapiens, UniProt P53779)
T4 construct: purchased KINOMEscan
T4 sequence (P53779 whole entry): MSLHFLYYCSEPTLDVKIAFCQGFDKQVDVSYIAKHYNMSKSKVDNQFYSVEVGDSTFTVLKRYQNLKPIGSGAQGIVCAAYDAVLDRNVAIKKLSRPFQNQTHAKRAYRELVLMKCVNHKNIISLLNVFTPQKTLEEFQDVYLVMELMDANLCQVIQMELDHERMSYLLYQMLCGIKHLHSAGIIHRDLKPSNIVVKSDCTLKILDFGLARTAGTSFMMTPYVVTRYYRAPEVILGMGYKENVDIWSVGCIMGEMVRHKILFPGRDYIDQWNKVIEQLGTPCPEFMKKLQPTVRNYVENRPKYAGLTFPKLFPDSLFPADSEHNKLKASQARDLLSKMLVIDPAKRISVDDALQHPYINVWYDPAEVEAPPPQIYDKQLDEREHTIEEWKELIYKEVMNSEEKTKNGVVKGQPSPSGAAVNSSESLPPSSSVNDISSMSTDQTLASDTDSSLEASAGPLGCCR
Source text: as §1

T1 sequence (Q9C098 whole entry): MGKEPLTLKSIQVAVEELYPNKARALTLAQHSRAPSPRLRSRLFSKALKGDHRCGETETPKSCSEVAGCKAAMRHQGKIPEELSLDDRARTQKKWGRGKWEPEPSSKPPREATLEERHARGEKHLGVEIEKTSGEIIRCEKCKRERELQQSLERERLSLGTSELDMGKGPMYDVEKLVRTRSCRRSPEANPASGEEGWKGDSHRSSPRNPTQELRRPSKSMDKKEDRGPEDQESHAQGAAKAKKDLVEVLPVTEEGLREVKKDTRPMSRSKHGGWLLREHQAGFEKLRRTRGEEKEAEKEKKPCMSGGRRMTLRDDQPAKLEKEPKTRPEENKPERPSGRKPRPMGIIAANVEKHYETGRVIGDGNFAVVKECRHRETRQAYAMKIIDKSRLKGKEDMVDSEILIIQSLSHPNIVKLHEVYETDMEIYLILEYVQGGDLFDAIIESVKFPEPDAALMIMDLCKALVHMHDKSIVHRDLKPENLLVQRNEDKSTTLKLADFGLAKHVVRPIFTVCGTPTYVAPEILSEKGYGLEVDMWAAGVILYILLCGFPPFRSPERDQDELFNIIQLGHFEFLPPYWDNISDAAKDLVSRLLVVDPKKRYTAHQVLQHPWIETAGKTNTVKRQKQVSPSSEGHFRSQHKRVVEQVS

Row | SMILES | KINOMEscan: DCAMKL3 (panel of 442 kinases [1]) | KINOMEscan: EPHA5 (panel of 442 kinases [2]) | KINOMEscan: PIM3 (panel of 442 kinases [3]) | KINOMEscan: JNK3 (panel of 442 kinases [4])
1 | COc1cc(C(=O)N2CCC(N3CCN(C)CC3)CC2)ccc1Nc1ncc2c(n1)N(C)c1ccccc1C(=O)N2C [15 (LRRK2-IN-1)] | 90 | 95 | 88 | 77
2 | COc1cc(C(=O)N2CCC(N3CCN(C)CC3)CC2)ccc1Nc1ncc2c(n1)N1CCc3cccc(c31)C(=O)N2C [Compound 24] |  | 94 | 67 | 43
3 | COc1cc(C(=O)N2CCC(N3CCN(C)CC3)CC2)ccc1Nc1ncc2c(n1)N(C1CCCC1)c1ccccc1C(=O)N2C [Compound 25, 11-cyclopentyl-2-((2-methoxy-4-(4-(4-methylpiperazin-1-yl)piperidine-1-carbonyl)phenyl)amino)-5-methyl-5H-benzo[e]pyrimido[5,4-b][1,4]diazepin-6(11H)-one] | 100 | 99 | 78 | 48
4 | CCOc1cc(C(=O)N2CCC(N3CCN(C)CC3)CC2)ccc1Nc1ncc2c(n1)N(C1CCCC1)c1ccccc1C(=O)N2C [Compound 26] | 92 | 100 | 100 | 74
